pEC50: −log10 of the molar value. Read-outs that look alike come from different tables or passages of the source.
Key:
[1] = test system: human lens epithelial (HLE) cells; assay: Cell-based heat protection, viability by Alamar blue; set-up: Cell Heat % protection: concentration or dose not given beside the values; details: for Cell Heat % protection: Table 8
Description: Alamar blue was used for assessing viability. Mean±SEM of the measurements are shown.
Cell-based using assays using human lens epithelial cell lines SRA 01/04 and B3 were also performed. The cells were exposed to UV or heat and cell viability assessed 24 hours post-exposure by Alamar blue staining. In another experiment, SRA 01/04 cells were pre-incubated with varying concentrations of compounds two hours prior to UV exposure. Relative protection was measured as percent viability compared to vehicle control 24 hours following UV exposure. Mean±SEM of the measurements are shown.

[2] = molecular target: T1, alpha-A crystalline (Homo sapiens, UniProt P02489); assay: Ca+2 and UVC induced aggregation of alpha-A crystalline (absorbance screen); format: biochemical; details: for inhibition at 200 µM: read-out: Percent protection (at 200 μM); for pEC50: preventing Ca+2 and UVC induced aggregation of alpha-A crystalline;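 as to all read-outs here: recombinant human alpha-A crystallin (500 µg/ml) preincubated 30 min with compound, then UV-induced aggregation tracked by absorbance at time points from 0 to 120 min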
T1 sequence (P02489 1-173): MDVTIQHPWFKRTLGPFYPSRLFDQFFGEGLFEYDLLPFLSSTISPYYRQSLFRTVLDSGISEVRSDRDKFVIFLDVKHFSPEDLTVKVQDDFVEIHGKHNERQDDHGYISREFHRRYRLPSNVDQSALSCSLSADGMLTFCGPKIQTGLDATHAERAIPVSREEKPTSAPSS

[3] = test system: SRA 01/04 HLE cells; assay: Cell-based UV protection, viability by Alamar blue; set-up: species or system human; details: Table 5;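 also: cells pretreated with compound at a range of concentrations before UV irradiation, viability read 24 h after exposure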
[4] = 200 μM, Ca+2 and UVC induced aggregation of alpha-A crystalline

Row | Structure (SMILES) | inhibition at 200 µM [2, 4] | also measured
1 | O=S(=O)(O)c1cc(O)c2cc(Nc3ccccc3)ccc2c1 [CAP4183] |  | Cell Heat % protection [1]: 17%
2 | Nc1ccc2c(O)cc(S(=O)(=O)O)cc2c1 [CAP4190] |  | Cell Heat % protection [1]: 15%
3 | Oc1cc(O)c2c(c1)O[C@H](c1ccc(O)c(O)c1)[C@H](O)C2 [CAP1049] |  | Percent protection (at 200 μM) [2, 4]: −5%
4 | C[C@@](Cc1ccc(O)c(O)c1)(NN)C(=O)O [CAP1055] | 1% | 
5 | COC(=O)[C@@H](NC(C)=O)c1ccc(OC(C)=O)c(OC(C)=O)c1 [CAP1518] | -4% | 
6 | CC(CCc1ccc(O)cc1)NCCc1ccc(O)c(O)c1 (stereo not drawn) [CAP1266] |  | Percent protection (at 200 μM) [2, 4]: −14%
7 | Oc1cc2cc[nH]c2cc1O [CP1194] | 25% | pEC50 [2]: 2.96
8 | O=C1O[C@H]([C@@H](O)CO)C(O)=C1O [CAP3037] | -2% | 
9 | C[C@](N)(Cc1ccc(O)c(O)c1)C(=O)O [CAP1056] | -5% | 
10 | Oc1ccc(CCNCCCCCCNCCc2ccccc2)cc1O [CAP1215] | -47% | 
11 | O=C(O)c1ccc(C(=O)c2ccc(C(=O)O)cc2)cc1 [CAP4160] |  | Cell-based [UV] (max % net protection) [3]: 82%; Cell-based [Heat] (max % net protection) ([1]; Table 5): 0%
12 | O=C(c1ccccc1)c1ccc([N+](=O)[O-])cc1 [CAP4131] |  | Cell-based [UV] (max % net protection) [3]: 0%
13 | COc1cc2cc(C(=O)O)[nH]c2cc1OC [CAP1447] | 22% | 
14 | COc1ccc(C(=O)c2ccc([N+](=O)[O-])cc2)cc1S(=O)(=O)NCc1ccccc1 [CAP4256] |  | Cell-based [UV] (max % net protection) [3]: 7%
15 | NCCc1ccc(O)c(O)c1 [CAP1265] | -6% | 
16 | COc1ccc(CC(=O)NC2CCCCCCCCCCC2)cc1OC [CAP1279] | 5% | 
17 | COc1ccc(CCNC(=O)C2CCCCC2)cc1OC [CAP1222] | 38% | 
18 | COc1ccc(CCNC(=O)CCCC(=O)NCCc2ccc(OC)c(OC)c2)cc1OC [CAP1228, N,N′-bis[2-(3,4-dimethoxyphenyl)ethyl]pentanediamide] |  | Percent protection (at 200 μM) [2, 4]: 60%
19 | O=C(OC[C@H]1OC(OC(=O)c2cc(O)c(O)c(OC(=O)c3cc(O)c(O)c(O)c3)c2)[C@H](OC(=O)c2cc(O)c(O)c(OC(=O)c3cc(O)c(O)c(O)c3)c2)[C@@H](OC(=O)c2cc(O)c(O)c(OC(=O)c3cc(O)c(O)c(O)c3)c2)[C@@H]1OC(=O)c1cc(O)c(O)c(OC(=O)c2cc(O)c(O)c(O)c2)c1)c1cc(O)c(O)c(OC(=O)c2cc(O)c(O)c(O)c2)c1 (stereo partly drawn) [CAP1176] | 76% | 
20 | O=C(O)/C=C/c1ccc(O)c(O)c1 [CAP3062] | 16% | 
21 | O=C(O[C@H]1Cc2c(O)cc(O)cc2O[C@H]1c1cc(O)c(O)c(O)c1)c1cc(O)c(O)c(O)c1 [CAP1460] | 1% | 
22 | COc1cc(/C=C/C(=O)CC(=O)/C=C/c2ccc(O)c(OC)c2)ccc1O [CAP3040] | 4% | 
23 | O=C1c2ccccc2C(=O)c2c1cc(S(=O)(=O)O)c(O)c2O [CAP1072] | 53% | 
24 | Oc1cc(O)c2c(c1)O[C@H](c1ccc(O)c(O)c1)[C@H](O)C2 [CAP3042] |  | Percent protection (at 200 μM) [2, 4]: −17%
25 | COc1cc(CC2NCCc3cc(O)c(O)cc32)cc(OC)c1OC (stereo not drawn) [CAP1058] | -27% | 
26 | N[C@@H](Cc1ccc(O)c(O)c1)C(=O)O [CAP1042] |  | pEC50 [2]: 3.07
27 | COc1ccc(CCNC(=O)CCC2CCCCC2)cc1OC [CAP1224] |  | Percent protection (at 200 μM) [2, 4]: 46%; pEC50 [2]: 3.06

Row | Structure (SMILES) | inhibition at 200 µM [2, 4] | also measured
28 | CCC(CC)C(=O)NCCc1ccc(OC)c(OC)c1 [CAP1223] | 29% | 
29 | CC(=O)c1cc(C)cc([N+](=O)[O-])c1O [CAP3071] | 30% | 
30 | O=c1c(O)c(-c2ccc(O)c(O)c2)oc2cc(O)ccc12 [CAP1053] | 52% | pEC50 [2]: 3.34
31 | O=C(CC1CCC1)NCCc1ccc(O)c(O)c1 [CAP1239] | 23% | 
32 | CCCCCCCCCCCCCCCCCC(=O)NCCc1ccc(O)c(O)c1 [CAP1241] | 135% | 
33 | O=S(=O)([O-])c1cc(O)c2cc(O)ccc2c1.[Na+] [CAP4186] |  | Cell Heat % protection [1]: 17%
34 | CNC[C@H](O)c1ccc(O)c(O)c1 [CAP1043] | -5% | 
35 | NC(=O)c1ncn([C@@H]2O[C@H](CO)[C@@H](O)[C@H]2O)n1 [CAP1380] | 16% | 
36 | O=C1c2ccc(S(=O)(=O)O)c(O)c2C(=O)c2ccc(S(=O)(=O)O)c(O)c21 [CAP1219] | -5% | 
37 | COc1ccc(CCNC(=O)C2CCCC2)cc1OC [CAP1231, N-[2-(3,4-dimethoxyphenyl)ethyl]cyclopentanecarboxamide] | 51% | 
38 | CC(CCc1ccc(O)cc1)NCCc1ccc(O)c(O)c1 (stereo not drawn) [CAP1051] |  | inhibition at 200 µM [2]: -28%
39 | COc1ccc(CCNC(=O)CCCC2CCCC2)cc1OC [CAP1236] | -2% | 
40 | COc1ccc(CCNC(=O)C2CCN(C(=O)c3ccc(F)cc3)CC2)cc1OC [CAP1232] | 41% | 
41 | COc1ccc(CCNC(=O)CCCCC(=O)NCCc2ccc(OC)c(OC)c2)cc1OC [CAP1225] | 50% | 
42 | Oc1cc(O)c2c(c1)O[C@H](c1ccc(O)c(O)c1)[C@@H](O)C2 [CAP1047] | -17% | 
43 | COc1cc(CNc2cccc(C)n2)cc([N+](=O)[O-])c1O [CAP1112] | 12% | 
44 | COc1ccc(/C=C/C(=O)O)cc1OC [CAP3064] | 12% | 
45 | COc1cc(/C=N/c2cccc(C)n2)cc([N+](=O)[O-])c1O [CAP1110] | 19% | 
46 | COc1cc2cc[nH]c2cc1OC [CAP1519] | 9% | 
47 | Nc1ccc(C(=O)c2ccccc2)cc1 [CAP4128] |  | Cell-based [UV] (max % net protection) [3]: 23%
48 | COc1cc(C(=O)O)cc(OC)c1O [CAP3107] | 7% | 
49 | Nc1cc(S(=O)(=O)O)cc2cc(S(=O)(=O)O)cc(O)c12 [CAP4179] |  | Cell Heat % protection [1]: 29%
50 | COc1ccc(CCNC(=O)CCCC(=O)NCCc2ccc(OC)c(OC)c2)cc1OC [CAP1278] |  | Percent protection (at 200 μM) [2, 4]: 38%
51 | Oc1ccc(C2CNCCc3c2cc(O)c(O)c3Cl)cc1 (stereo not drawn) [CAP1044] | -16% | 
52 | O=C(NCCc1ccc(O)c(O)c1)C12CC3CC(CC(C3)C1)C2 [CAP1057] | -8% | 
53 | COc1cc2nc(N3CCN(C(=O)C4COc5ccccc5O4)CC3)nc(N)c2cc1OC (stereo not drawn) [CAP3035] | 114% | 
54 | Oc1cc(O)c2c(c1)O[C@H](c1ccc(O)c(O)c1)[C@H](O)C2 [CAP3032] |  | Percent protection (at 200 μM) [2, 4]: −16%

Row | Structure (SMILES) | inhibition at 200 µM [2, 4] | also measured
55 | COc1ccc(CCNC(=O)C2CCN(C(=O)Cc3ccccc3)CC2)cc1OC [CAP1227, N-[2-(3,4-dimethoxyphenyl)ethyl]-1(phenylacetyl)-4-piperidinecarboxamide] | 46% | pEC50 [2]: 3.54
56 | COc1ccc(CCNC(=O)CCC2CCCCC2)cc1OC [CAP1274] | 55% | 
57 | O=C(NCCc1ccccc1)C1CCC(C(=O)NCCc2ccccc2)CC1 (stereo not drawn) [CAP1280] | 44% | pEC50 [2]: 3.71
58 | Nc1ccc2c(O)cc(S(=O)(=O)O)cc2c1 [CAP4180] |  | Cell Heat % protection [1]: 22%
59 | COc1ccc(CCNC(=O)CC23CC4CC(CC(C4)C2)C3)cc1OC [CAP1281] | 64% | 
60 | CC(CCc1ccc(O)cc1)NCCc1ccc(O)c(O)c1 (stereo not drawn) [CAP1264] |  | Percent protection (at 200 μM) [2, 4]: 3%
61 | CCN(CC)C(=O)/C(C#N)=C/c1cc(O)c(O)c([N+](=O)[O-])c1 [CAP1159] | 27% | pEC50 [2]: 3.50
62 | COc1ccc(CCNC(=O)C2CCC2)cc1OC [CAP1226, N-[2-(3,4-dimethoxyphenyl)ethyl]cyclobutanecarboxamide] | 72% | pEC50 [2]: 4.34
63 | COc1ccc(CCNC(=O)C2CC2)cc1OC [CAP1230, N-[2-(3,4-dimethoxyphenyl)ethyl]cyclopropanecarboxamide] | 18% | 
64 | COc1ccc(/C=C/C(C)=O)cc1OC [CAP3066] | 21% | 
65 | CC(=O)/C=C/c1ccc(O)c(O)c1 [CAP3065] | -32% | 
66 | Oc1cc(O)c2c(c1)O[C@@H](c1ccc(O)c(O)c1)[C@@H](O)C2 [CAP1458] | -17% | 
67 | O=C(O)[C@H]1OC(Oc2cc3oc(-c4ccccc4)cc(=O)c3c(O)c2O)[C@H](O)[C@@H](O)[C@@H]1O (stereo partly drawn) [CAP1052] | 3% | 
68 | Cc1cc2c(C(C)C)c(O)c(O)c(C=O)c2c(O)c1-c1c(C)cc2c(C(C)C)c(O)c(O)c(C=O)c2c1O [CAP1356] |  | inhibition at 200 µM [2]: -46%
69 | CC(=O)Oc1cc2cc[nH]c2cc1OC(C)=O [CAP1517] | 40% | 
70 | COc1cc(/C=C/C(=O)/C=C(O)/C=C/c2ccc(O)c(OC)c2)ccc1O [CAP1459] | -95% | 
71 | O=c1c(O)c(-c2ccc(O)c(O)c2)oc2cc(O)cc(O)c12 [CAP1451] | 35% | 
72 | Nc1ccc(Cl)cc1C(=O)c1ccccc1Cl [CAP4126] |  | Cell-based [UV] (max % net protection) [3]: 0%
73 | COc1ccc(C(=O)c2ccc([N+](=O)[O-])cc2)cc1S(=O)(=O)NC1CCCCC1 [CAP4257] |  | Cell-based [UV] (max % net protection) [3]: 19%
74 | COc1ccc(CCNC(=O)CCCC(=O)NCOc2ccc(OC)cc2)cc1 [CAP1229] | 22% | 
75 | CCc1onc2ccc(C(=O)c3ccccc3)cc12 [CAP4258] |  | Cell-based [UV] (max % net protection) [3]: 36%
76 | CC1CCC(NC(C)Cc2ccc(O)c(O)c2)CC1 (stereo not drawn) [CAP1240] |  | inhibition at 200 µM [2]: -13%
77 | Nc1c(O)cc(S(=O)(=O)O)c2ccccc12 [CAP4188] |  | Cell Heat % protection [1]: 2%
78 | O=C1c2ccccc2C(=O)c2c1ccc(S(=O)(=O)O)c2O [CAP1220] | 20% | 
79 | Nc1ccc2cc(S(=O)(=O)[O-])cc(O)c2c1.[Na+] [CAP4187] |  | Cell Heat % protection [1]: 19%

— patent US11872236B2, “Pharmacological agents for treating ocular diseases” (CALASIA PHARMACEUTICALS, INC., priority 2018, dated 2024)
